Tests used:
[1] = set-up: species or system human; details: in vivo
Experimental: (§1) In a double-blind study, creatine pyruvate (A) and placebo (B) were tested. The male experimental subjects (n=32; age: 18 to 32) were divided into groups, each of n=16, so that the maximum oxygen consumption per kilogram of body weight was on average the same in the groups, and the types of sport undertaken were usually distributed the same as far as possible. This led to the fact that the mean strength in the intermittent studies was not the same. The test subjects of group A were administered 5.0 g of creatine pyruvate per day over a period of 28 days. The initial test (IT) was carried out on the 1st day, and the closing test (CT) on the 29th day. In the morning between 8 and 11 o'clock fasted blood sampling, record of anthropometric data; standardized breakfast; then intermittent test of the lower arm musculature.

[2] = tested on: lower arm musculature; experiment: Intermittent test with the lower arm musculature, blood tests and acid-base status; assay type: in vivo, human
Experimental: as §1, with “day.” for “day. In the morning between 8 and 11 o'clock fasted blood sampling, record of anthropometric data; standardized breakfast; then intermittent test of the lower arm musculature.”
The arm of the seated test subjects is positioned extended (horizontally) at the side at shoulder height. The hand lies on an adjustable-weight gripper (stroke length: 3 cm). The arm is supported at the elbow. The test subjects must perform highly intensive intermittent work, for which they compress the adjustable-weight gripper at the maximum possible frequency. The weight in the basket is 80% of the maximum weight achieved in a preliminary test in which the load, starting at 7.5 kg, is increased by 2.5 kg every 3 minutes. The contraction frequency is 24/min. The maximum weight is reached when the 3 cm stroke length can no longer be overcome. Blood is taken from the cubital vein on the working arm. The skin blood flow is reduced by cooling. […]

[3] = Double-blind study, anthropometric data; assay type: in vivo, human
Experimental: as §1, with “musculature. […] The circumference of the thickest part of the lower arm increased in group A (p<0.005).” for “musculature.”

[4] = tested on: lower arm musculature; experiment: Intermittent test with the lower arm musculature, mechanical parameters; assay type: in vivo, human
Experimental: as §1, with “day.” for “day. In the morning between 8 and 11 o'clock fasted blood sampling, record of anthropometric data; standardized breakfast; then intermittent test of the lower arm musculature.”
The arm of the seated test subjects is positioned extended (horizontally) at the side at shoulder height. The hand lies on an adjustable-weight gripper (stroke length: 3 cm). The arm is supported at the elbow. The test subjects must perform highly intensive intermittent work, for which they compress the adjustable-weight gripper at the maximum possible frequency. The weight in the basket is 80% of the maximum weight achieved in a preliminary test in which the load, starting at 7.5 kg, is increased by 2.5 kg every 3 minutes. The contraction frequency is 24/min. The maximum weight is reached when the 3 cm stroke length can no longer be overcome. Blood is taken from the cubital vein on the working arm. The skin blood flow is reduced by cooling. Blood was taken in each case before and after the 1st, 2nd, 6th, 9th and 10th period.
Via an inductive distance measurer on the adjustable-weight gripper, the stroke length of the weight basket was measured. From the signal, 4 measurements can be obtained. • 1. Contraction rate • 2. Stroke length • 3. Duration of the total contraction • 4. Integral of stroke length over time
The force is the mean force during the shortening phase, not the point-measurement maximum force. It is only the force which was developed additionally to the force necessary to overcome the force of gravity. In addition, the relaxation rate and the contraction frequency were determined. The evaluation was started with the fourth contraction. Thereafter, each contraction was evaluated over 12 seconds. The mechanical parameters were determined in the 1st, 2nd, 6th and 9th interval.

[5] = administration of creatine pyruvate
[6] = closing test, day 29, after 5.0 g per day over 28 days
[7] = initial vs closing test, 5.0 g per day over 28 days
[8] = initial vs closing test, p<0.005
[9] = highly intensive intermittent work, 80% of maximum weight, analysis of variance, p<0.01

creatine pyruvate
Change of HB [1]: not different | Change of Hct [1]: not different | Change of LDL cholesterol [1]: just above the level of significance | Change of leukocyte number [1]: no difference | Change of number of erythrocytes [1]: decreased significantly | Change of uric acid concentration [1]: significant decrease | Creatinine, CT mean [1]: 1.19 | Creatinine, IT mean [1]: 1.07 mg/dL | Effect on fat metabolism at rest [1]: no effect | Effects on kidney and liver function and fat metabolism parameters [1]: no adverse effects | Erythrocytes, CT mean [1]: 4.96 | Erythrocytes, IT mean [1]: 5.3 10^6/µL | Hb, CT mean [1]: 15.4 g/dL | Hb, IT mean [1]: 15.56 | Hct, CT mean [1]: 45.13 | Hct, IT mean [1]: 45.5% | Leukocytes, CT mean [1]: 9386.67 | Leukocytes, IT mean [1]: 8980 µL⁻¹ | PT, CT mean [1]: 6.20 | PT, IT mean [1]: 5.40 | Urea, CT mean [1]: 30.00 | Urea, IT mean [1]: 34.07 | Uric acid, CT mean [1]: 5.29 mg/dL | Uric acid, IT mean [1]: 5.64 mg/dL | Overacidification of muscle tissue in highly intensive intermittent exertion [2, 5]: does not occur, or only occurs to a very slight extent | Rise of maximum values during exertion (parameter not named at the place) ([2]; t test for paired random samples, p<0.002): significantly lower rise | BIA fat measurement, CT mean [3, 6]: 16.63 kg | BIA water measurement, CT mean [3, 6]: 47.39 kg | Body fat (skinfold), CT mean [3, 6]: 11.59% | Body weight, CT mean [3, 6]: 83.20 kg | Circumference of lower elbow, CT mean [3, 6]: 29.62 cm | Circumference of thickest point of the arm, CT mean [3, 6]: 29.67 cm | BIA fat measurement, IT mean ([3]; initial test, day 1): 16.69 kg | BIA water measurement, IT mean ([3]; initial test, day 1): 46.64 kg | Body fat (skinfold), IT mean ([3]; initial test, day 1): 11.33% | Circumference of lower elbow, IT mean ([3]; initial test, day 1): 28.94 cm | Circumference of thickest point of the arm, IT mean ([3]; initial test, day 1): 29.01 cm | Body weight, IT mean ([3]; initial test, day 1, group A, 5.0 g per day over 28 days): 81.70 kg | Change of body fat content (skinfold thickness and BIA) [3, 7]: no change in body fat content | Change of body weight [3, 7]: increased significantly | Change of body fat content (skinfold thickness and BIA) ([3]; initial vs closing test, 5.0 g per day over 28 days, listed as A): remained the same | Change of body H2O ([3]; initial vs closing test, one-sided test, p<0.05): increases in body H2O were significant | Change of circumference at the epicondyles [3, 8]: The same applied | Change of circumference of the thickest part of the lower arm [3, 8]: increased | Muscle fatigue under highly intensive intermittent exertion [4, 5]: significant reduction in muscle fatigue | Relaxation rate ([4]; highly intensive intermittent work, 80% of maximum weight): showed a tendency to increase | Power calculated from the shortening rate ([4]; highly intensive intermittent work, 80% of maximum weight, analysis of variance, p<0.005): increased in all intervals | Contraction frequency [4, 9]: increased in all intervals | Force [4, 9]: increased in all intervals | Performance in highly intensive exertion ([4]; short exertion and final intervals): significant increase in performance
